From PMC6627486, “Ipomoeassin F Binds Sec61α to Inhibit Protein Translocation” (Journal of the American Chemical Society, 2019)
pIC50: −log10 of the molar value.

Columns and labels:
MDA-MB-231 cells = assay: Live cell imaging with fluorescent probe 12; assay type: cell-based, human; details: 30 min preincubation, 100-fold excess competitor
Procedure: MDA-MB-231 cells were seeded on fibronectin-coated coverslips at 70% confluency in a 48-well plate and cultured at 37 °C and 5% CO2. After 24 h, culture medium was replaced with fresh medium containing a 20 µM competitor or an equal volume of DMSO vehicle for 30 min at 37 °C and 5% CO2, followed by addition of 0.2 µM (final concentration) fluorescent probe 12. After 1 h incubation at 37 °C and 5% CO2, the coverslips were mounted onto a glass slide with a mounting medium with or without 0.5 µg/ml DAPI.
The fluorescent images were acquired with a confocal microscope (Leica TCS SP5) using 405 nm excitation and 562 nm excitation. For the ER co-localization studies, 1 uM ER-Tracker™ Blue-White DPX was added to the medium after 1 h incubation with probe 12. After 5 min incubation, the coverslips were mounted onto a glass slide and the images were acquired as described above.
CT7 photo-affinity labeling and click chemistry were done as previously described.14 Briefly, SRMs (sheep rough microsomes, isolated as described in reference15) containing 100 nM Sec61 were treated with 10 µM ipomoeassin F/mycolactone or 1% DMSO for 30 min at 0°C, followed by incubation with 100 nM CT7 for 10 min RT. Samples were then photolyzed for 10 min and crosslinked proteins were detected by click chemistry, SDS-PAGE, and in-gel fluorescent scanning (Typhoon Trio, GE Healthcare). […]

[1] = target: T1, Sec61-mediated protein translocation (Canis lupus familiaris, UniProt P38377); assay: In vitro translation and Sec61-dependent translocation into ER microsomes; assay type: biochemical, canine
T1 construct: ER microsomes derived from canine pancreas; from tissue; host or cells: canine pancreas ER microsomes (nuclease-treated)
Text: (§1) In Vitro Membrane Translocation Assays.
(§2) Unless otherwise stated, all cDNAs are of human origin and as previously described: CytB5OPG2,16 GypC,17 ppαF (Saccharomyces cerevisiae),16 ppcecAOPG2 (Hyalophora cecropia),16 PPL (Bos Taurus),16 Sec61βOPG216 and VCAM1.17 Ii encodes residues 17 to 232 of the short form of human HLA class II histocompatibility antigen gamma chain (Ii; P04232, isoform 2). Linear DNA templates were generated by PCR and transcribed into RNA using T7 or SP6 polymerase (Promega).
(§3) In vitro translation and translocation into ER microsomes
(§4) Translation reactions (20 μL) were performed in nuclease-treated rabbit reticulocyte lysate (Promega) in the presence of EasyTag EXPRESS 35S Protein Labelling Mix containing [35S] methionine (Perkin Elmer) (0.533 MBq; 30.15 TBq/mmol). Amino acids minus methionine (Promega) were added to 25 µM each, […]
(§5) equivalent volume of DMSO, and nuclease-treated ER microsomes (from stock with OD280 = 44/mL) were added to 6.5% (v/v). Lastly, 10% volume of in vitro transcribed mRNA (from 200-1000 ng/μL stocks) encoding the relevant precursor protein was added and translation reactions performed for 20 min at 30°C. Following incubation with 0.1 mM puromycin for 5 min at 30°C to ensure translational termination and ribosome release, membrane-associated fractions were isolated by centrifugation through an 80 μL high-salt cushion (0.75 M sucrose, 0.5 M KOAc, 5 mM Mg(OAc)2, 50 mM Hepes-KOH, pH 7.9) at 100,000 x g for 10 min at 4°C in a TLA100 rotor (Beckmann). Membrane pellets were suspended directly in SDS (sodium dodecyl sulphate) sample buffer (0.02% bromophenol blue, 62.5 mM, 4% (w/v) SDS, 10% (v/v) glycerol, pH 7.6, 1 M dithiothreitol) and, where indicated, treated with 1,000 U of Endoglycosidase H (New England Biolabs) for 30 min at 37°C prior to analysis. All samples were denatured for 10 min at 70°C prior to resolution by SDS-PAGE (12% or 16% polyacrylamide gels, 120 V, 120 min), gels were fixed (20% MeOH, 10% AcOH) for 5 min, dried (BioRad gel dryer) for 2 h at 65°C and, following exposure to a phosphorimaging plate for 24-72 h, radiolabelled products were visualised using a Typhoon FLA-7000 (GE Healthcare).
(§6) Quantitative analysis of Ii membrane insertion was performed using AIDA v.5.0 (Raytest Isotopenmeβgeräte) whereby the ratio of the signal intensity for the 2Gly/0Gly forms was used as a read-out to estimate efficiency of integration into the ER membrane. This value was then expressed relative to the matched DMSO control in order to derive the mean relative ER insertion from three independent experiments (n=3). Statistical significance of the effectiveness of Ipom-F analogues (RM one-way ANOVA) was determined using Tukey’s multiple comparisons test. IC50 value estimates were determined using non-linear regression to fit data to a curve of variable slope (four parameters) using the least squares fitting method in which the bottom and top plateaus of the curve were defined as 0% and 100% respectively. The differences between the estimated IC50 values for the three compounds analysed were statistically significant (****) according to the extra-sum-of-squares F test. Statistical analyses and IC50 estimates were performed using Prism 7.0d (GraphPad) with statistical significance given as n.s., non - significant and ****, P < 0.0001.
(§7) U2-OS secNLuc-ATZ Secretion and Cell Viability Assays

[2] = system: Sec61-mediated protein translocation; assay: as above; assay type: biochemical, canine
Text: as §1, §2, §3, §4, §5, §6, §7

[3] = system: several cancer-derived cell lines; parameters: method as in PMID 19697385; details: cited from earlier work

T1 sequence (P38377 whole entry): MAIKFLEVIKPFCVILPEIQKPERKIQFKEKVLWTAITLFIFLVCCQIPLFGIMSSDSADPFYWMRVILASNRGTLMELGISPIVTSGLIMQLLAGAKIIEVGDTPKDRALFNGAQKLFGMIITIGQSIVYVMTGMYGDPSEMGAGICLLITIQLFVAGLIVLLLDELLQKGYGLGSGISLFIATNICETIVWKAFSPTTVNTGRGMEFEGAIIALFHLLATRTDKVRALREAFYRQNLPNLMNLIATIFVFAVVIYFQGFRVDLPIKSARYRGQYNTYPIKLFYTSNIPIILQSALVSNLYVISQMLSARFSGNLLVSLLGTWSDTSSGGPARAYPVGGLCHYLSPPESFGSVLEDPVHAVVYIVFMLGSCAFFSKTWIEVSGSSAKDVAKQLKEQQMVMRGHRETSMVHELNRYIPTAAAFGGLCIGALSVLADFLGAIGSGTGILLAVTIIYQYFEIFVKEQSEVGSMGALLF
T1 sequence (P60467 whole entry, further chain): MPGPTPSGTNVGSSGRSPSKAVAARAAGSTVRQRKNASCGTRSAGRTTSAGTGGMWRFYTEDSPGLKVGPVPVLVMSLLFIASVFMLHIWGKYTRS
T1 sequence (P60058 whole entry, further chain): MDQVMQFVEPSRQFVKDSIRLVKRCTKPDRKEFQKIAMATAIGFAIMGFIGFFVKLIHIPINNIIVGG

C/C=C(\C)C(=O)O[C@@H]1[C@@H](O)[C@@H]2O[C@H]3[C@H](O[C@@H](CCCCC)CCCCCCC(=O)CCC(=O)OC[C@@H](O2)[C@H]1OC(=O)/C=C/c1ccccc1)O[C@H](C)[C@H](OC(C)=O)[C@@H]3O [ipomoeassin F]
effect of competitor on fluorescence signal of 12 (MDA-MB-231 cells): almost completely abolished | pIC50 [1]: ~7.30 | membrane insertion of type I and type II integral membrane proteins (VCAM1, Ii) [1]: potently inhibits | translocation of short secretory protein prepro-cecropin A [1]: only a marginal impact | translocation of secretory proteins bovine preprolactin and yeast prepro-alpha-factor ([1]; 1 μM compound): almost completely prevented | inhibition of Ii membrane insertion ([1]; type II membrane protein Ii, ER microsomes): strongly inhibit membrane insertion | membrane insertion of type III integral membrane protein glycophorin C [2]: no effect | in vitro integration of tail-anchored proteins (Sec61βOPG2, Cytb5OPG2) ([2]; Sec61-independent control substrates): unaffected | IC50 values against several cancer-derived cell lines [3]: single-digit nanomolar
